Patent publication US9249110B2, “Substituted quinoxalines as B-raf kinase inhibitors” (NEUPHARMA, INC., priority 2011, dated 2016)

How the values were obtained:
BRAF V600E = molecular target: T1, BRAF V600E (Homo sapiens, UniProt P15056, V600E); experiment: Z′-LYTE kinase inhibition assay against BRAF V600E (Invitrogen); format: biochemical; conditions: 1 μM compound, Z′-LYTE method
T1 construct: purchased Invitrogen
Method: (§1) Inhibitory activities of compounds against BRAF or BRAF V600E were measured by Invitrogen using Z′-LYTE® Method as briefly described in the following.
(§2) 4× Test compounds are dissolved in 1% DMSO. […] ATP solutions are diluted to a 4×ATP working concentration in Kinase Buffer (50 mM HEPES pH 7.5, 0.01% BRIJ-35, 10 mM MgCl2, 1 mM EGTA).
(§3) Reaction starts by 30-second shaking of mixture consisting of 2.5 μL4× test compound, […] and 2.5 μL 4×ATP Solution on Bar-coded Corning, low volume NBS, black 384-well plate (Corning Cat. #3676). Then the mixture is incubated for 60-minute at room temperature for the kinase reaction, followed by addition of 5 μL of a 1:1024 dilution of development reagent A and 30-second plate shake. The mixture is then incubated for another 60-minute at room temperature for development reaction. Finally fluorescence is read by plate reader.

KDR (VEGFR2) = molecular target: T2, KDR (VEGFR2) (Homo sapiens, UniProt P35968); experiment: Z′-LYTE kinase inhibition assay against KDR (Invitrogen); format: biochemical; conditions: 1 μM compound, Z′-LYTE method
T2 construct: purchased Invitrogen
T2 sequence (P35968 20-1356): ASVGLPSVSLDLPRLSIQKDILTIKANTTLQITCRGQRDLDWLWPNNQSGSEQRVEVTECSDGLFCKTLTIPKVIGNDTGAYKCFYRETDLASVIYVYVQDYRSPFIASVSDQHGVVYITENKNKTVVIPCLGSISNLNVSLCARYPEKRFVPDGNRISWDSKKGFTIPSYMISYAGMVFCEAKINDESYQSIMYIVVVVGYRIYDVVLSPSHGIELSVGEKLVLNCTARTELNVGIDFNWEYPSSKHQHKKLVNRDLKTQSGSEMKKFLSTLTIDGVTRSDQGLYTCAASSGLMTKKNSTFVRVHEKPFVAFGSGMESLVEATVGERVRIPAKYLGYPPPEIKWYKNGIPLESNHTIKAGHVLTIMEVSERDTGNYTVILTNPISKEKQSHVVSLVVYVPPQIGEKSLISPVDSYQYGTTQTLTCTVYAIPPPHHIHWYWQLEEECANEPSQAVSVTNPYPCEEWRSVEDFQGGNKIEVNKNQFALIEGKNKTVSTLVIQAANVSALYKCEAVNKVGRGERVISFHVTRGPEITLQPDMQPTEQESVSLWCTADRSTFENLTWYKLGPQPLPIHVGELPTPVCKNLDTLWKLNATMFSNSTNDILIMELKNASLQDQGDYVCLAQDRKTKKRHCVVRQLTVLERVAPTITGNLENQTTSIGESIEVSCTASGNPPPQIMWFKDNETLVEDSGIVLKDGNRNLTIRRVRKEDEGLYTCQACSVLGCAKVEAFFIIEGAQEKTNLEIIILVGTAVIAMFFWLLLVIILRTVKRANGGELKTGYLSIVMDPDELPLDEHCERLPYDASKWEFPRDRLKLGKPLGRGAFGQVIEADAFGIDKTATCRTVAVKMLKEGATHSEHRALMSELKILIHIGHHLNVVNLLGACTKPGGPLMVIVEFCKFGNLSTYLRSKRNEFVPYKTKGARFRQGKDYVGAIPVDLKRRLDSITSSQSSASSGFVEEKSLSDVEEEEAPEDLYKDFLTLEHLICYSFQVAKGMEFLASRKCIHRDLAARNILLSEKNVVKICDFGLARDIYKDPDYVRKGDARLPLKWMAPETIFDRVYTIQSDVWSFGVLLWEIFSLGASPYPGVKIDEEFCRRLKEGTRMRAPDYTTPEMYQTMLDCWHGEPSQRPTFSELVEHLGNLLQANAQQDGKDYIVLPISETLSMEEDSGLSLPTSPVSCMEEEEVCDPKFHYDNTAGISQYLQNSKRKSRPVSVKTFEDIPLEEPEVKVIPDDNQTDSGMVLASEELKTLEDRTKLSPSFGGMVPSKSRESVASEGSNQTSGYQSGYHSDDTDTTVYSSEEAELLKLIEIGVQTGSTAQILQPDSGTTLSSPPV
Method: Inhibitory activities of compounds against KDR (VEGFR2) were also measured by Invitrogen using Z′-LYTE® Method as described above with the following modification. The 2×KDR (VEGFR2)/Tyr 01 mixture is prepared in 50 mM HEPES pH 7.5, 0.01% BRIJ-35, 10 mM MgCl2, 1 mM EGTA. The final 10 μL Kinase Reaction consists of 0.5-11.7 ng KDR (VEGFR2) and 2 μM Tyr 01 in 50 mM HEPES pH 7.5, 0.01% BRIJ-35, 10 mM MgCl2, 1 mM EGTA. After the 1 hour Kinase Reaction incubation, 5 μL of a 1:256 dilution of Development Reagent B is added. […] The scale utilized in Table 3 is as follows: ++ more than 70% inhibition and + less than 70% inhibition.

A375 cells = experiment: Inhibition of cancer cell growth, MTT assay, A375 cells; format: cell-based; conditions: Homo sapiens, A-375, 72 h compound exposure
Method: (§4) Inhibition of cell growth by compounds was measured using MTT assay (Mosmann, T., Journal of Immunological Methods, 1983, 65, 55-63). Tumor cell lines were purchased from ATCC (American Type Culture Collection, Manassas, Va.). All cell lines were maintained in RPMI 1640 (Hyclone) supplemented with 10% fetal bovine serum (FBS, Hyclone), glutamine (2 mM, Hyclone), and antibiotics (penicillin 100 U/mL and streptomycin 50 μg/mL) at 37° C. in a humidified atmosphere of 5% CO2 in air. Taxol (as a positive control, Sigma) and compounds were dissolved in DMSO (Sigma), and the final concentration of DMSO in the medium was 1%. Tumor cells were plated in 96-well plates at densities of about 4000 cells/well of a 96-well plate and allowed to adhere/grow for 24 h. They were then treated with various concentrations of drug for 72 h. 3-(4,5-Dimethylthiazol-2-yl)-2,5-diphenyltetrazolium bromide (MTT, Sigma) was used to determine the number of viable cells at the time of compound addition and the number of cells remaining after 72 h compound exposure. The number of cells remaining after 72 h was compared to the number of viable cells at the time of compound addition by measuring the absorbance at 570 nm, allowing for the calculation of growth inhibition.
(§5) All concentrations of compounds were tested in triplicate and controls were averaged over 4 wells. IC50 was calculated by plotting the concentration of compound vs the percentage of inhibition in treated wells using GraphPad Prism 5. […] The scale utilized in Table 4 is as follows: +++ less than 1000 nM, ++ between 1000 and 5000 nM, and + greater than 5000 nM.

A549 cells = experiment: Inhibition of cancer cell growth, MTT assay, A549 cells; format: cell-based; conditions: Homo sapiens, 72 h compound exposure
Method: as §4, §5

BRAF = molecular target: T3, BRAF (Homo sapiens, UniProt P15056); experiment: Z′-LYTE kinase inhibition assay against BRAF (Invitrogen); format: biochemical; conditions: 1 μM compound, Z′-LYTE method
T3 construct: purchased Invitrogen
T3 sequence (P15056 whole entry): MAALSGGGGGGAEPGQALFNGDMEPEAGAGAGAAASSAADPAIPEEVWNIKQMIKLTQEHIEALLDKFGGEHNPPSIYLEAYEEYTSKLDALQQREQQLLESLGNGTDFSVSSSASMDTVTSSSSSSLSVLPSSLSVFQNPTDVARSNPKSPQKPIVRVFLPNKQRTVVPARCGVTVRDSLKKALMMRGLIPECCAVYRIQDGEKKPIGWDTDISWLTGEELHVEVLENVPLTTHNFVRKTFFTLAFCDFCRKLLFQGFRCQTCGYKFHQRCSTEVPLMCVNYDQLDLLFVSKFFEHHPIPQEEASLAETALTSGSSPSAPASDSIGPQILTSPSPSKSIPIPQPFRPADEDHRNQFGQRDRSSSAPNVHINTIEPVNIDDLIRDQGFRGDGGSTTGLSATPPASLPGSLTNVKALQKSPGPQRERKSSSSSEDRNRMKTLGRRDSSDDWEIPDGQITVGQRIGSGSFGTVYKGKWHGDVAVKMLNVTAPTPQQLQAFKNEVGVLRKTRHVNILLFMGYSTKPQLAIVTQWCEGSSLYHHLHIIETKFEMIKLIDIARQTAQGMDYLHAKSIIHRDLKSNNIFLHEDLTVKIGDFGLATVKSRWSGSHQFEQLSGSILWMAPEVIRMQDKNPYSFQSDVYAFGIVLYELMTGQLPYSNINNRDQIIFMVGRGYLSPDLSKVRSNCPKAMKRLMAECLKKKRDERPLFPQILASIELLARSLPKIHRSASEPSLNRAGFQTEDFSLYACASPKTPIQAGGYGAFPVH
Method: as §1, §2, §3

T1 sequence (P15056 whole entry V600E): as the sequence (P15056 whole entry) above, with V600E counted along it

Structure (SMILES)	inhibition at 1 µM (BRAF V600E) [%]	inhibition at 1 µM (KDR (VEGFR2)) [%]	IC50 (A375 cells) [µM]	IC50 (A549 cells) [µM]	inhibition at 1 µM (BRAF) [%]
CCCS(=O)(=O)Nc1ccc(F)c(C(=O)c2ccc3nccnc3c2)c1F [Compound C01, N-(2,4-difluoro-3-(quinoxaline-6-carbonyl)phenyl)propane-1-sulfonamide]	> 89	–	< 1	< 1	70 to 89
CCCS(=O)(=O)Nc1ccc(F)c(C(=O)c2ccc3ncc(C#N)nc3c2)c1F [Compound C04, N-(3-(3-cyanoquinoxaline-6-carbonyl)-2,4-difluorophenyl)propane-1-sulfonamide]	> 89	–	< 1	< 1	70 to 89
O=C(Nc1ccc(F)c(C(=O)c2ccc3nccnc3c2)c1F)c1cccc(F)c1 [Compound C09, N-(2,4-difluoro-3-(quinoxaline-6-carbonyl)phenyl)-3-fluorobenzamide]	70 to 89	–	> 5	> 5	–
CCCS(=O)(=O)Nc1ccc(F)c(C(=O)c2ccc3ncc(OC)nc3c2)c1F [Compound C03, N-(2,4-difluoro-3-(3-methoxyquinoxaline-6-carbonyl)phenyl)propane-1-sulfonamide]	> 89	–	1 to 5	1 to 5	70 to 89
CCCS(=O)(=O)Nc1ccc(F)c(C(=O)c2ccc3ncc(-c4ccc(Cl)cc4)nc3c2)c1F [Compound C02, N-(3-(3-(4-chlorophenyl)quinoxaline-6-carbonyl)-2,4-difluorophenyl)propane-1-sulfonamide]	> 89	–	< 1	< 1	70 to 89
CCCS(=O)(=O)Nc1ccc(F)c(C(=O)c2ccc3ncc(N4CCOCC4)nc3c2)c1F [Compound C05, N-(2,4-difluoro-3-(3-morpholinoquinoxaline-6-carbonyl)phenyl)propane-1-sulfonamide]	–	–	1 to 5	–	–

More lines, now with the values ahead:

inhibition at 1 µM (BRAF V600E) [%]	inhibition at 1 µM (KDR (VEGFR2)) [%]	IC50 (A375 cells) [µM]	IC50 (A549 cells) [µM]	inhibition at 1 µM (BRAF) [%]	Structure (SMILES)
70 to 89	< 70	> 5	> 5	–	O=C(Nc1cccc(C(F)(F)F)c1)Nc1ccc(F)c(C(=O)c2ccc3nccnc3c2)c1F [Compound C06, 1-(2,4-difluoro-3-(quinoxaline-6-carbonyl)phenyl)-3-(3-(trifluoromethyl)phenyl)urea]
70 to 89	> 70	> 5	> 5	–	O=C(Nc1ccc(F)c(C(=O)c2ccc3nccnc3c2)c1F)c1cccc(C(F)(F)F)c1 [Compound C10, N-(2,4-difluoro-3-(quinoxaline-6-carbonyl)phenyl)-3-(trifluoromethyl)benzamide]
< 70	< 70	1 to 5	> 5	–	O=C(Nc1ccc(Cl)c(C(F)(F)F)c1)Nc1ccc(F)c(C(=O)c2ccc3nccnc3c2)c1F [Compound C08, 1-(4-chloro-3-(trifluoromethyl)phenyl)-3-(2,4-difluoro-3-(quinoxaline-6-carbonyl)phenyl)urea]
70 to 89	< 70	> 5	1 to 5	–	O=C(Nc1cccc(F)c1)Nc1ccc(F)c(C(=O)c2ccc3nccnc3c2)c1F [Compound C07, 1-(2,4-difluoro-3-(quinoxaline-6-carbonyl)phenyl)-3-(3-fluorophenyl)urea]
